Assay results: ChEMBL document CHEMBL3739333, “Nature of the charged head group dictates the anticancer potential of lithocholic acid-tamoxifen conjugates for breast cancer therapy” (Medchemcomm, 2015)
One block for each compound: values may come before it. The source made the active and inactive calls. The rule behind the calls is not given here.

Columns and labels:
MDA-MB-231 [1] = assay: Drug uptake in human ER negative MDA-MB-231 cells; assay type: ADME, cell-based
MCF7 [2] = assay: Drug uptake in human MCF7 cells expressing ER; assay type: ADME, cell-based
MDA-MB-231 [3] = assay: Cytotoxicity against human ER negative MDA-MB-231 cells after 48 hrs by MTT assay; assay type: functional, cell-based; conditions: MDA-MB-231, 48 h
MCF7 [4] = assay: Cytotoxicity against human MCF7 cells expressing ER after 48 hrs by MTT assay; assay type: functional, cell-based; conditions: MCF7, 48 h
MDA-MB-468 [5] = assay: Cytotoxicity against human ER negative MDA-MB-468 cells after 48 hrs by MTT assay; assay type: functional, cell-based; conditions: MDA-MB-468, 48 h
T47D [6] = assay: Cytotoxicity against human T47D cells expressing ER after 48 hrs by MTT assay; assay type: functional, cell-based
[7] = Retention time of the compound by HPLC analysis; assay type: physicochemical
[8] = Binding affinity to model membranes using Laurdan-based hydration assessed as changes in generalized polarization after 6 hrs
Lipid bilayer [9] = assay: Binding affinity to DPPC membranes assessed as changes in membrane fluidity of liposomes by measuring fluorescence anisotropy; conditions: Liposome; TDE = time-dependent effect
Lipid bilayer [10] = assay: Binding affinity to DPPC membranes assessed as lowering of phase transition temperature
MDA-MB-231 [11] = assay: Cell cycle arrest in human ER negative MDA-MB-231 cells assessed as accumulation of sub-G0 phase after 48 hrs by FACS analysis; assay type: functional, cell-based
MCF7 [12] = assay: Cell cycle arrest in human MCF7 cells expressing ER assessed as accumulation of sub-G0 phase after 48 hrs by FACS analysis; assay type: functional, cell-based
MCF7 [13] = assay: Induction of apoptosis in human MCF7 cells expressing ER assessed as change in mitochondrial membrane potential at 10 to 20 uM after 48 hrs using DiOC6 dye based FACS analysis; assay type: functional, cell-based
MDA-MB-231 [14] = assay: Ratio of tamoxifen IC50 to compound IC50 for human ER negative MDA-MB-231 cells after 48 hrs by MTT assay; assay type: functional
MDA-MB-468 [15] = assay: Ratio of tamoxifen IC50 to compound IC50 for human ER negative MDA-MB-468 cells after 48 hrs by MTT assay; assay type: functional
MCF7 [16] = assay: Decrease in active-caspase-8 level in human MCF7 cells expressing ER at 10 uM after 48 hrs by Western blot analysis; assay type: functional, cell-based
MDA-MB-231 [17] = assay: Cell cycle arrest in human ER negative MDA-MB-231 cells assessed as accumulation of sub-G0 phase at 20 uM after 48 hrs by FACS analysis relative to control; assay type: functional
MCF7 [18] = assay: Cell cycle arrest in human MCF7 cells expressing ER assessed as accumulation of sub-G0 phase at 20 uM after 48 hrs by FACS analysis relative to control; assay type: functional
MDA-MB-231 [19] = assay: Induction of apoptosis in human ER negative MDA-MB-231 cells assessed as change in mitochondrial membrane potential at 10 to 20 uM after 48 hrs using DiOC6 dye based FACS analysis; assay type: functional, cell-based
MDA-MB-231 [20] = assay: Induction of apoptosis in human ER negative MDA-MB-231 cells assessed as increase of ROS level at 20 uM after 60 mins using DCFDA relative to control; assay type: functional
MCF7 [21] = assay: Induction of apoptosis in human MCF7 cells expressing ER assessed as increase of ROS level at 20 uM after 60 mins using DCFDA relative to control; assay type: functional, cell-based
MDA-MB-231 [22] = assay: Induction of apoptosis in human ER negative MDA-MB-231 cells assessed as increase of Bax protein expression at 10 uM after 48 hrs by Western blot analysis; assay type: functional, cell-based
MDA-MB-231 [23] = assay: Induction of apoptosis in human ER negative MDA-MB-231 cells assessed as decrease of Bcl-2 protein expression at 10 uM after 48 hrs by Western blot analysis; assay type: functional, cell-based
MDA-MB-231 [24] = assay: Induction of apoptosis in human ER negative MDA-MB-231 cells assessed as effect of Bcl-xL protein expression at 10 uM after 48 hrs by Western blot analysis; assay type: functional, cell-based
MDA-MB-231 [25] = assay: Induction of apoptosis in human ER negative MDA-MB-231 cells assessed as increase of cleaved caspase 6 level at 10 uM after 48 hrs by Western blot analysis; assay type: functional, cell-based
MDA-MB-231 [26] = assay: Induction of apoptosis in human ER negative MDA-MB-231 cells assessed as increase of cleaved caspase 7 level at 10 uM after 48 hrs by Western blot analysis; assay type: functional, cell-based
MDA-MB-231 [27] = assay: Induction of apoptosis in human ER negative MDA-MB-231 cells assessed as increase of cleaved caspase 8 level at 10 uM after 48 hrs by Western blot analysis; assay type: functional, cell-based
MDA-MB-231 [28] = assay: Induction of apoptosis in human ER negative MDA-MB-231 cells assessed as effect on caspase 9 level at 10 uM after 48 hrs by Western blot analysis; assay type: functional, cell-based
MCF7 [29] = assay: Induction of apoptosis in human MCF7 cells expressing ER assessed as decrease of Bcl-2 protein expression at 10 uM after 48 hrs by Western blot analysis; assay type: functional, cell-based
MCF7 [30] = assay: Induction of apoptosis in human MCF7 cells expressing ER assessed as decrease of Bcl-xL protein expression at 10 uM after 48 hrs by Western blot analysis; assay type: functional, cell-based
MCF7 [31] = assay: Induction of apoptosis in human MCF7 cells expressing ER assessed as effect of Bax protein expression at 10 uM after 48 hrs by Western blot analysis; assay type: functional, cell-based
MCF7 [32] = assay: Induction of apoptosis in human MCF7 cells expressing ER assessed as effect on caspase 9 level at 10 uM after 48 hrs by Western blot analysis; assay type: functional, cell-based
MCF7 [33] = assay: Decrease in caspase-6 level in human MCF7 cells expressing ER at 10 uM after 48 hrs by Western blot analysis; assay type: functional, cell-based
MCF7 [34] = assay: Decrease in caspase-7 level in human MCF7 cells expressing ER at 10 uM after 48 hrs by Western blot analysis; assay type: functional, cell-based
T47D [35] = assay: Ratio of tamoxifen IC50 to compound IC50 for human ER positive T47D cells after 48 hrs by MTT assay; assay type: functional
MCF7 [36] = assay: Decrease in pro-caspase-8 level in human MCF7 cells expressing ER at 10 uM after 48 hrs by Western blot analysis; assay type: functional, cell-based

Retention_time [7]: 6.741 min
SMILES: CC/C(=C(\c1ccccc1)c1ccc(OCCN(C)C(=O)CC[C@@H](C)[C@H]2CC[C@H]3[C@@H]4CC[C@@H]5C[C@H](OC(=O)C[N+]6(C)CCOCC6)CC[C@]5(C)[C@H]4CC[C@]23C)cc1)c1ccccc1.[Cl-]
IC50 (MDA-MB-231 [3]): 48.2 µM
IC50 (MCF7 [4]): 43.6 µM
IC50 (MDA-MB-468 [5]): 15.3 µM
IC50 (T47D [6]): 45.2 µM

Retention_time [7]: 6.79 min
SMILES: CC/C(=C(\c1ccccc1)c1ccc(OCCN(C)C(=O)CC[C@@H](C)[C@H]2CC[C@H]3[C@@H]4CC[C@@H]5C[C@H](OC(=O)C[N+]6(C)CCCC6)CC[C@]5(C)[C@H]4CC[C@]23C)cc1)c1ccccc1.[Cl-]
IC50 (MDA-MB-231 [3]): 12.6 µM
IC50 (MCF7 [4]): 24 µM
IC50 (MDA-MB-468 [5]): 6.61 µM
IC50 (T47D [6]): 8.4 µM

Retention_time [7]: 6.767 min
SMILES: CC/C(=C(\c1ccccc1)c1ccc(OCCN(C)C(=O)CC[C@@H](C)[C@H]2CC[C@H]3[C@@H]4CC[C@@H]5C[C@H](OC(=O)C[N+]6(C)CCCCC6)CC[C@]5(C)[C@H]4CC[C@]23C)cc1)c1ccccc1.[Cl-]
IC50 (MDA-MB-231 [3]): 9.2 µM
IC50 (MCF7 [4]): 24.5 µM
IC50 (MDA-MB-468 [5]): 7.6 µM
IC50 (T47D [6]): 9.8 µM

Retention_time [7]: 6.735 min
SMILES: CC/C(=C(\c1ccccc1)c1ccc(OCCN(C)C(=O)CC[C@@H](C)[C@H]2CC[C@H]3[C@@H]4CC[C@@H]5C[C@H](OC(=O)C[N+]67CCN(CC6)CC7)CC[C@]5(C)[C@H]4CC[C@]23C)cc1)c1ccccc1.[Cl-]
IC50 (MDA-MB-231 [3]): 20 µM
IC50 (MCF7 [4]): > 50 µM
IC50 (MDA-MB-468 [5]): 20.9 µM
IC50 (T47D [6]): 17.9 µM

The remaining lines, values behind:

SMILES: C[C@H](CCC(=O)NCc1cn(CCNc2ccc([N+](=O)[O-])c3nonc23)nn1)[C@H]1CC[C@H]2[C@@H]3CC[C@@H]4C[C@H](OC(=O)C[n+]5ccc(N(C)C)cc5)CC[C@]4(C)[C@H]3CC[C@]12C.[Cl-]
Drug uptake (MDA-MB-231 [1]): Active
Drug uptake (MCF7 [2]): Active

SMILES: CC/C(=C(\c1ccccc1)c1ccc(OCCN(C)c2ccc([N+](=O)[O-])c3nonc23)cc1)c1ccccc1
Drug uptake (MDA-MB-231 [1]): Active
Drug uptake (MCF7 [2]): Active

SMILES: CC/C(=C(\c1ccccc1)c1ccc(OCCN(C)C(=O)CC[C@@H](C)[C@H]2CC[C@H]3[C@@H]4CC[C@@H]5C[C@H](OC(=O)C[N+](C)(C)C)CC[C@]5(C)[C@H]4CC[C@]23C)cc1)c1ccccc1.[Cl-]
IC50 (MDA-MB-231 [3]): 18.1 µM
IC50 (MCF7 [4]): 28.9 µM
IC50 (MDA-MB-468 [5]): 15 µM
IC50 (T47D [6]): 8.1 µM
Retention_time [7]: 6.676 min

SMILES: C[C@H](CCC(=O)O)[C@H]1CC[C@H]2[C@@H]3CC[C@@H]4C[C@H](OC(=O)C[n+]5ccc(N(C)C)cc5)CC[C@]4(C)[C@H]3CC[C@]12C
IC50 (MDA-MB-231 [3]): 13.7 µM
IC50 (MCF7 [4]): 43.4 µM
IC50 (MDA-MB-468 [5]): 9.1 µM
IC50 (T47D [6]): 13.3 µM
Activity [8]: inactive
Activity (Lipid bilayer [9]): tde
Activity (Lipid bilayer [10]): Active
Activity (MDA-MB-231 [11]): Dose-dependent effect
Activity (MCF7 [12]): Dose-dependent effect
Activity (MCF7 [13]): inactive

SMILES: CC/C(=C(\c1ccccc1)c1ccc(OCCN(C)C(=O)CC[C@@H](C)[C@H]2CC[C@H]3[C@@H]4CC[C@@H]5C[C@H](OC(=O)C[n+]6ccc(N(C)C)cc6)CC[C@]5(C)[C@H]4CC[C@]23C)cc1)c1ccccc1.[Cl-]
IC50 (MDA-MB-231 [3]): 6.5 µM
IC50 (MCF7 [4]): 12.7 µM
IC50 (MDA-MB-468 [5]): 3.13 µM
IC50 (T47D [6]): 7 µM
Ratio IC50 (MDA-MB-231 [14]): 4
Ratio IC50 (MDA-MB-468 [15]): 4
inhibition (MCF7 [16]): Active
Retention_time [7]: 6.837 min
Activity [8]: Active
Activity (Lipid bilayer [9]): tde
Activity (Lipid bilayer [10]): Active
Activity (MDA-MB-231 [11]): Dose-dependent effect
Activity (MCF7 [12]): Dose-dependent effect
fold change (FC) (MDA-MB-231 [17]): 5
fold change (FC) (MCF7 [18]): 6
Activity (MDA-MB-231 [19]): Active
Activity (MCF7 [13]): inactive
fold change (FC) (MDA-MB-231 [20]): 2.3
Activity (MCF7 [21]): inactive
Activity (MDA-MB-231 [22]): Active
Activity (MDA-MB-231 [23]): Active
Activity (MDA-MB-231 [24]): inactive
Activity (MDA-MB-231 [25]): Active
Activity (MDA-MB-231 [26]): Active
Activity (MDA-MB-231 [27]): Active
Activity (MDA-MB-231 [28]): inactive
Activity (MCF7 [29]): Active
Activity (MCF7 [30]): Active
Activity (MCF7 [31]): inactive
Activity (MCF7 [32]): inactive
inhibition (MCF7 [33]): Active
inhibition (MCF7 [34]): Active
Ratio IC50 (T47D [35]): 4
inhibition (MCF7 [36]): Active

SMILES: CC/C(=C(\c1ccccc1)c1ccc(OCCN(C)C(=O)CC[C@@H](C)[C@H]2CC[C@H]3[C@@H]4CC[C@@H]5C[C@H](OC(=O)C[n+]6ccccc6)CC[C@]5(C)[C@H]4CC[C@]23C)cc1)c1ccccc1.[Cl-]
IC50 (MDA-MB-231 [3]): 18 µM
IC50 (MCF7 [4]): > 50 µM
IC50 (MDA-MB-468 [5]): 13.6 µM
IC50 (T47D [6]): 17.4 µM
Retention_time [7]: 7.033 min

SMILES: CC/C(=C(\c1ccccc1)c1ccc(OCCN(C)C(=O)CC[C@@H](C)[C@H]2CC[C@H]3[C@@H]4CC[C@@H]5C[C@H](OC(=O)CN)CC[C@]5(C)[C@H]4CC[C@]23C)cc1)c1ccccc1
IC50 (MDA-MB-231 [3]): > 50 µM
IC50 (MCF7 [4]): > 50 µM
IC50 (MDA-MB-468 [5]): > 50 µM
IC50 (T47D [6]): > 50 µM
Activity [8]: Active
Activity (Lipid bilayer [9]): tde

SMILES: CC/C(=C(\c1ccccc1)c1ccc(OCCN(C)C)cc1)c1ccccc1 [TAMOXIFEN]
IC50 (MDA-MB-231 [3]): 27 µM
IC50 (MDA-MB-468 [5]): 15 µM
IC50 (T47D [6]): 29.9 µM
Activity [8]: inactive
Activity (Lipid bilayer [9]): tde
Activity (Lipid bilayer [10]): inactive
Activity (MDA-MB-231 [11]): Dose-dependent effect
Activity (MCF7 [12]): Dose-dependent effect
fold change (FC) (MDA-MB-231 [17]): 3
fold change (FC) (MCF7 [18]): 2
Activity (MDA-MB-231 [19]): inactive
Activity (MCF7 [13]): inactive
fold change (FC) (MDA-MB-231 [20]): 1.8
